How the values were obtained:
DENV [1] = test: Evans Blue perfusion model of DENV-induced vascular leakage in WT mice; assay type: in vivo; conditions: i.p. 1×10^6 pfu DENV, 1 day after infection, versus uninfected baseline
Protocol: Uninfected mice, or mice infected with 1×10^6 pfu of DENV were injected with 100 μL of 5% Evans Blue dye 30 minutes prior to euthanasia. […] This contrast is particularly striking in the liver, a Dengue-target organ.
(§1) Serum was obtained from uninfected mice, DENV-infected and untreated mice, and mice that received MC-stabilizing or MC-product targeting treatments 24 hr after infection. Error bars represent the SEM of values obtained from individual animals n≥3.
As expected, Sash mice, which are MC-deficient model (see, e.g., Grimbaldestron, M. A. et al. (2005) Am. J. Pathol. 167:835-848), have undetectable serum levels of MCPT1 as baseline, as do uninfected congenic wild-type (WT) controls (FIG. 2A). To examine vascular leakage, mice infected with DENV were injected by tail vein with the tracking dye, Evans Blue, 30 minutes prior to euthanasia at a 24 hr time point.
Using this Evans Blue perfusion model, the extent of vascular leakage induced in 24 hr after i.p. instillation of 1×10^6 plaque-forming units (pfu) of DENV in WT and Sash mice was determined. […]
Due to the contributions of MCs to many pathological inflammatory disorders, there are a number of available drugs that target MCs or products that they produce after activation. […] Drugs were administered once, 30 minutes after i.p. instillation of 1×106 DENV and vascular leakage assessed 1 day after infection.

DENV [2] = test: Hematocrit analysis in DENV-infected WT mice; assay type: in vivo; conditions: i.p. 1×10^6 pfu DENV, 1 day after infection, versus uninfected baseline
Protocol: as §1
To support the observation of increased dye leakage, hematocrit analysis was also performed using blood samples from mice. This test is one that is used in some cases to diagnose DENV pathology clinically by measuring the packed red blood cell volume from the blood and, therefore, it is a measure of plasma loss (see, e.g., Special Programme for Research and Training in Tropical Diseases, WHO Dengue: guidelines for diagnosis, treatment, prevention, and control. (2009) New ed. Geneva:TDR:World Health Organization). […] These findings cumulatively point to a pivotal role for MCs in promoting DENV-induced increased in vascular permeability.
Due to the contributions of MCs to many pathological inflammatory disorders, there are a number of available drugs that target MCs or products that they produce after activation. […] This hypothesis was tested by blocking DENV induced vascular leakage using a panel of such drugs. […] Drugs were administered once, 30 minutes after i.p. instillation of 1×106 DENV and vascular leakage assessed 1 day after infection.

Q: What does the source list for `CN1CCC(=C2c3ccccc3CC(=O)c3sccc32)CC1` [ketotifen]?
A: levels of tissue dye detection compared to baseline levels (DENV [1]): not statistically different from baseline levels; hematocrit values compared to baseline levels (DENV [2]): not statistically different from baseline levels
